Results as given in the NIST ThermoML archive (doi:10.1021/acs.jced.8b00080).
Numbers after ± are expanded uncertainties.

Test: activity coefficient (dimensionless); of the first substance listed, at infinite dilution; xn = mol fraction of the nth substance listed
Conditions: 101.33 kPa, Liquid, Chromatography, x1 = 0

Compound | activity coefficient (303 K) | activity coefficient (313 K) | activity coefficient (323 K) | activity coefficient (333 K) | activity coefficient (343 K) | activity coefficient (353 K)
C1CCOC1 [tetrahydrofuran] + C[n+]1ccn(CCO)c1.O=S(=O)([O-])C(F)(F)C(F)(F)C(F)(F)C(F)(F)F | 1.73 ± 0.1 | 1.7 ± 0.09 | 1.64 ± 0.09 | 1.59 ± 0.09 | 1.52 ± 0.09 | 1.48 ± 0.09
ClCCl [dichloromethane] + C[n+]1ccn(CCO)c1.O=S(=O)([O-])C(F)(F)C(F)(F)C(F)(F)C(F)(F)F | 2.14 ± 0.11 | 1.99 ± 0.1 | 1.85 ± 0.1 | 1.69 ± 0.09 | 1.54 ± 0.09 | 1.45 ± 0.09
C1CCCCC1 [cyclohexane] + C[n+]1ccn(CCO)c1.O=S(=O)([O-])C(F)(F)C(F)(F)C(F)(F)C(F)(F)F | 24.3 ± 0.88 | 19.1 ± 0.69 | 15.2 ± 0.55 | 11.7 ± 0.42 | 9.39 ± 0.34 | 7.54 ± 0.27
c1ccccc1 [benzene] + C[n+]1ccn(CCO)c1.O=S(=O)([O-])C(F)(F)C(F)(F)C(F)(F)C(F)(F)F | 4.71 ± 0.17 | 4.27 ± 0.16 | 3.85 ± 0.15 | 3.34 ± 0.13 | 2.95 ± 0.12 | 2.65 ± 0.12
CCCO [propan-1-ol] + C[n+]1ccn(CCO)c1.O=S(=O)([O-])C(F)(F)C(F)(F)C(F)(F)C(F)(F)F | 2.22 ± 0.11 | 2.07 ± 0.1 | 1.91 ± 0.1 | 1.81 ± 0.1 | 1.66 ± 0.09 | 1.53 ± 0.09
Cc1cccc(C)c1 [1,3-dimethylbenzene] + C[n+]1ccn(CCO)c1.O=S(=O)([O-])C(F)(F)C(F)(F)C(F)(F)C(F)(F)F | 11.6 ± 0.42 | 10.8 ± 0.39 | 9.86 ± 0.35 | 8.71 ± 0.31 | 7.91 ± 0.28 | 7.2 ± 0.26
CO [methanol] + C[n+]1ccn(CCO)c1.O=S(=O)([O-])C(F)(F)C(F)(F)C(F)(F)C(F)(F)F | 1.1 ± 0.08 | 1.02 ± 0.08 | 0.93 ± 0.08 | 0.9 ± 0.08 | 0.87 ± 0.08 | 0.82 ± 0.08
C=CCCCC [hex-1-ene] + C[n+]1ccn(CCO)c1.O=S(=O)([O-])C(F)(F)C(F)(F)C(F)(F)C(F)(F)F | 15.7 ± 0.57 | 12.4 ± 0.45 | 9.71 ± 0.35 | 7.62 ± 0.27 | 6.07 ± 0.22 | 4.97 ± 0.18
C#CCCCCCC [1-octyne] + C[n+]1ccn(CCO)c1.O=S(=O)([O-])C(F)(F)C(F)(F)C(F)(F)C(F)(F)F | 26.2 ± 0.94 | 23.8 ± 0.85 | 21.2 ± 0.76 | 19.1 ± 0.69 | 16.9 ± 0.61 | 14.8 ± 0.53
C=CCCCCCC [oct-1-ene] + C[n+]1ccn(CCO)c1.O=S(=O)([O-])C(F)(F)C(F)(F)C(F)(F)C(F)(F)F | 53.9 ± 2 | 45.2 ± 1.6 | 36.6 ± 1.3 | 29.5 ± 1.1 | 24.3 ± 0.88 | 19.9 ± 0.72
CC#N [acetonitrile] + C[n+]1ccn(CCO)c1.O=S(=O)([O-])C(F)(F)C(F)(F)C(F)(F)C(F)(F)F | 0.99 ± 0.08 | 0.97 ± 0.08 | 0.93 ± 0.08 | 0.9 ± 0.08 | 0.87 ± 0.08 | 0.84 ± 0.08
CC1CCCCC1 [methylcyclohexane] + C[n+]1ccn(CCO)c1.O=S(=O)([O-])C(F)(F)C(F)(F)C(F)(F)C(F)(F)F | 38.1 ± 1.4 | 29.7 ± 1.1 | 24.3 ± 0.88 | 19 ± 0.69 | 15.2 ± 0.55 | 12.3 ± 0.44
Cc1ccc(C)cc1 [1,4-dimethylbenzene] + C[n+]1ccn(CCO)c1.O=S(=O)([O-])C(F)(F)C(F)(F)C(F)(F)C(F)(F)F | 11.9 ± 0.43 | 11 ± 0.39 | 9.88 ± 0.35 | 8.78 ± 0.31 | 8 ± 0.28 | 7.59 ± 0.27
C=CCCCCCCCC [1-decene] + C[n+]1ccn(CCO)c1.O=S(=O)([O-])C(F)(F)C(F)(F)C(F)(F)C(F)(F)F | 122 ± 4.5 | 107 ± 3.9 | 91.5 ± 3.3 | 79.6 ± 2.9 | 67.7 ± 2.5 | 59.2 ± 2.1
CC(C)=O [acetone] + C[n+]1ccn(CCO)c1.O=S(=O)([O-])C(F)(F)C(F)(F)C(F)(F)C(F)(F)F | 0.93 ± 0.08 | 0.91 ± 0.08 | 0.9 ± 0.08 | 0.88 ± 0.08 | 0.85 ± 0.08 | 0.83 ± 0.08
CCCCCCC [heptane] + C[n+]1ccn(CCO)c1.O=S(=O)([O-])C(F)(F)C(F)(F)C(F)(F)C(F)(F)F | 53 ± 1.9 | 39.7 ± 1.4 | 30.9 ± 1.1 | 23.6 ± 0.86 | 18 ± 0.65 | 13.9 ± 0.5
CCc1ccccc1 [ethylbenzene] + C[n+]1ccn(CCO)c1.O=S(=O)([O-])C(F)(F)C(F)(F)C(F)(F)C(F)(F)F | 12.1 ± 0.43 | 11 ± 0.39 | 10.1 ± 0.36 | 8.82 ± 0.31 | 7.93 ± 0.28 | 7.09 ± 0.25
ClC(Cl)Cl [trichloromethane] + C[n+]1ccn(CCO)c1.O=S(=O)([O-])C(F)(F)C(F)(F)C(F)(F)C(F)(F)F | 2.27 ± 0.11 | 2.2 ± 0.11 | 2.11 ± 0.1 | 2.01 ± 0.1 | 1.91 ± 0.1 | 1.84 ± 0.1
CCCCCCCC [octane] + C[n+]1ccn(CCO)c1.O=S(=O)([O-])C(F)(F)C(F)(F)C(F)(F)C(F)(F)F | 99 ± 3.6 | 75.8 ± 2.8 | 61.2 ± 2.2 | 47.3 ± 1.7 | 37.1 ± 1.4 | 28.4 ± 1
Cc1ccccc1 [toluene] + C[n+]1ccn(CCO)c1.O=S(=O)([O-])C(F)(F)C(F)(F)C(F)(F)C(F)(F)F | 7.4 ± 0.26 | 6.83 ± 0.24 | 6.21 ± 0.22 | 5.44 ± 0.19 | 4.94 ± 0.18 | 4.44 ± 0.16
C1COCCO1 [1,4-dioxane] + C[n+]1ccn(CCO)c1.O=S(=O)([O-])C(F)(F)C(F)(F)C(F)(F)C(F)(F)F | 1.67 ± 0.09 | 1.64 ± 0.09 | 1.61 ± 0.09 | 1.59 ± 0.09 | 1.56 ± 0.09 | 1.53 ± 0.09
CCCCCC [hexane] + C[n+]1ccn(CCO)c1.O=S(=O)([O-])C(F)(F)C(F)(F)C(F)(F)C(F)(F)F | 23.5 ± 0.85 | 17.7 ± 0.64 | 13.7 ± 0.49 | 10.6 ± 0.38 | 8 ± 0.29 | 6.31 ± 0.23
CCCCCCCCC [nonane] + C[n+]1ccn(CCO)c1.O=S(=O)([O-])C(F)(F)C(F)(F)C(F)(F)C(F)(F)F | 157 ± 5.7 | 132 ± 4.8 | 105 ± 3.8 | 88 ± 3.2 | 71 ± 2.6 | 54.1 ± 2
CCO [ethanol] + C[n+]1ccn(CCO)c1.O=S(=O)([O-])C(F)(F)C(F)(F)C(F)(F)C(F)(F)F | 1.56 ± 0.09 | 1.48 ± 0.09 | 1.38 ± 0.09 | 1.31 ± 0.09 | 1.22 ± 0.08 | 1.14 ± 0.08
C#CCCC [1-pentyne] + C[n+]1ccn(CCO)c1.O=S(=O)([O-])C(F)(F)C(F)(F)C(F)(F)C(F)(F)F | 5.99 ± 0.21 | 5.07 ± 0.18 | 4.21 ± 0.16 | 3.68 ± 0.14 | 3.11 ± 0.13 | 2.59 ± 0.12
CCCCC [pentane] + C[n+]1ccn(CCO)c1.O=S(=O)([O-])C(F)(F)C(F)(F)C(F)(F)C(F)(F)F | 9.38 ± 0.34 | 6.94 ± 0.25 | 5.46 ± 0.2 | 4.34 ± 0.16 | 3.39 ± 0.14 | 2.75 ± 0.12
Cc1ccccc1C [1,2-dimethylbenzene] + C[n+]1ccn(CCO)c1.O=S(=O)([O-])C(F)(F)C(F)(F)C(F)(F)C(F)(F)F | 10.4 ± 0.37 | 9.7 ± 0.35 | 8.9 ± 0.32 | 7.81 ± 0.28 | 7.04 ± 0.25 | 6.52 ± 0.23
C#CCCCC [1-hexyne] + C[n+]1ccn(CCO)c1.O=S(=O)([O-])C(F)(F)C(F)(F)C(F)(F)C(F)(F)F | 10.4 ± 0.37 | 9.24 ± 0.33 | 7.92 ± 0.28 | 6.97 ± 0.25 | 6.03 ± 0.21 | 5.18 ± 0.19
C#CCCCCC [1-heptyne] + C[n+]1ccn(CCO)c1.O=S(=O)([O-])C(F)(F)C(F)(F)C(F)(F)C(F)(F)F | 16.7 ± 0.6 | 15.1 ± 0.54 | 13.4 ± 0.48 | 11.9 ± 0.43 | 10.4 ± 0.37 | 9.29 ± 0.33
